{"source": "patent US8637252B2", "about": "“Methods and compositions for determining altered susceptibility of HIV-1 to anti-HIV drugs” (Monogram Biosciences, Inc., priority 2011, dated 2014)", "key": {"[1]": {"tested_on": "HIV-1 patient-derived test vectors with site-directed reverse transcriptase mutations", "test": "phenotypic drug resistance test, site-directed reverse transcriptase mutants in patient backgrounds", "assay_type": "cell-based", "method": "In addition, using conventional technique, the T369I mutation was introduced into a resistance test vector comprising PR-RT segment derived from patient sample 62, which comprises mutations A62V, Q102K, K103N, K122E, D123N, C162S, D177E, 1178L, M184V, T200A, Q207E, T215Y, P243S, V245Q, A272P and R277K in reverse transcriptase. Among these mutations, K103N correlates with resistance to a number of NNRTIs, including NVP. This patient sample was tested for resistance to an NNRTI using the methods described above.\nTo further analyze the effects of N348I, T369I, and E399D on NNRTI resistance, an additional series of site directed mutants was constructed in non-wild-type backgrounds. In particular, site-directed mutants comprising the N348I, T369I, or E399D mutation were constructed in POL-containing test vectors obtained from three different patient samples. Results from these experiments are presented as FIG. 11.\nTo further analyze the effects of N348I, T369I, and E399D on AZT resistance, an additional series of site directed mutants was constructed in non-wild-type backgrounds. In particular, site-directed mutants comprising the N3481, T369I, or E399D mutation were constructed in POL-containing test vectors obtained from two different patient samples."}, "[2]": {"tested_on": "HIV-1 (PRRT-RH segment of patient sample 62)", "test": "phenotypic drug resistance test, PRRT-RH amplicon of sample 62", "assay_type": "cell-based", "from_the_text": "Patient-derived segment(s) corresponding to the entire pol gene, encoding HIV protease, reverse transcriptase (including RNAse H), and integrase (hereinafter “POL”), the portion of pol encoding amino acids 1-305 of reverse transcriptase (hereinafter “PR-RT”), the portion of pol encoding amino acids 319-440 of reverse transcriptase (including RNAse H), and integrase (hereinafter “RHIN”), were amplified by the reverse transcription-polymerase chain reaction method (RT-PCR) using viral RNA isolated from viral particles present in the plasma or serum of HIV-infected individuals as described below. The portion of pol encoding protease, amino acids 1-531 of reverse transcriptase (including RNase H) (hereinafter “PRRT-RH”), or the portion of pol encoding protease, reverse transcriptase (including RNAse H) and integrase (hereinafter “PRRT-RHIN”), were assembled from amplicons described above by standard recombinant DNA techniques involving a KpnI restriction site at amino acid 400 or a Pin A1 site at amino acid 315.\nDrug resistance tests performed with test vectors were carried out using packaging host and target host cells consisting of the human embryonic kidney cell line 293.\nResistance tests were carried out with the RTV libraries by using viral particles comprising the RTV libraries to infect a host cell in which the expression of the indicator gene is measured. The amount of indicator gene (luciferase) activity detected in infected cells is used as a direct measure of “infectivity,” i.e., the ability of the virus to complete a single round of replication. Thus, drug resistance or sensitivity can be determined by plotting the amount of luciferase activity produced by patient derived viruses in the presence of varying concentrations of the antiviral drug. By identifying the concentration of drug at which luciferase activity is half-maximum, the IC50 of the virus from which patient-derived segment(s) were obtained for the antiretroviral agent can be determined. […]"}, "[3]": {"details": "E399D mutation, patient 50 background"}, "[4]": {"details": "E399D mutation, patient 58 or patient 62 background"}, "[5]": {"details": "N348I and T369I mutations, POL test vectors of patients 50, 58, 62"}}}
{"smiles": "O=C1Nc2ccc(Cl)cc2[C@@](C#CC2CC2)(C(F)(F)F)O1", "note": "[EFV, efavirenz]", "values": [{"measurement": "change in resistance on addition of mutation", "setting": "[1]; [3]", "result": "increased"}, {"measurement": "change in resistance on addition of mutation", "setting": "[1]; [4]", "result": "not"}, {"measurement": "change in resistance on addition of mutation", "setting": "[1]; [5]", "result": "increased resistance"}, {"measurement": "Fold Change in IC50, PRRT-RH amplicon", "setting": "[2]", "result": 276.90, "unit": "fold"}]}
{"smiles": "Cc1ccnc2c1NC(=O)c1cccnc1N2C1CC1", "note": "[NVP, nevirapine]", "values": [{"measurement": "change in resistance on addition of mutation", "setting": "[1]; [3]", "result": "increased"}, {"measurement": "change in resistance on addition of mutation", "setting": "[1]; [4]", "result": "not"}, {"measurement": "change in resistance on addition of mutation", "setting": "[1]; [5]", "result": "increased resistance"}, {"measurement": "resistance of test vector", "setting": "[1]; T369I introduced into PR-RT segment of patient sample 62 (contains K103N)", "result": "enhanced resistance"}, {"measurement": "Fold Change in IC50, PRRT-RH amplicon", "setting": "[2]", "result": 400.00, "unit": "fold"}]}
{"smiles": "CC(C)Nc1cccnc1N1CCN(C(=O)c2cc3cc(NS(C)(=O)=O)ccc3[nH]2)CC1", "note": "[DLV, delavirdine]", "values": [{"measurement": "change in resistance on addition of mutation", "setting": "[1]; [3]", "result": "increased"}, {"measurement": "change in resistance on addition of mutation", "setting": "[1]; [4]", "result": "not"}, {"measurement": "change in resistance on addition of mutation", "setting": "[1]; [5]", "result": "increased resistance"}, {"measurement": "Fold Change in IC50, PRRT-RH amplicon", "setting": "[2]", "result": 250.00, "unit": "fold"}]}
